Source: patent US20220403337A1, “CELL REPROGRAMMING METHOD” (priority 2019, published 2022)

Columns and labels:
Format in all cases: cell-based
[1] = tested on: Normal human skin fibroblasts (adult); assay: Reprogramming of human skin fibroblasts: change in form, spheroid formation, alkaline phosphatase stain
Method: (§1) Normal human skin fibroblasts (adult) (Takara Bio) were seeded to a spheroid plate, and after 24 to 48 hours, medium exchange was performed on a D-MEM (Low Glucose) medium to which 2-mercaptoethanol diluted by 1/100000 (142 μM) was added. Then, after three to four days, medium exchange was performed again on the same D-MEM medium.
Then, after three or four days, the medium exchange was performed again on the same medium.
The alkaline phosphatase reaction of the cells finally obtained by the above-described culture was examined. The stain of alkaline phosphatase was performed in accordance with the operating manual attached to the kit using Alkaline Phosphatase Live Stain (Invitrogen). Specifically, the cells were cultured for 30 minutes in a medium in which a staining fluid (AP Live Stain) attached to the kit diluted by 500 times was added in the D-MEM. Afterwards, the medium was exchanged and cleaning was performed for five minutes x two times.
(§2) The processes similar to those of the above-described items 1 and 2 were performed to examine the concentration of 2-mercaptoethanol. Specifically, except that the concentration of 2-mercaptoethanol was set to 0.142 μM, 1.42 μM, 14.2 μM, 142 μM, 1.42 mM, 14.2 mM, and 142 mM, the operations same as those in the items 1 and 2 were performed.
Similarly to the item 1, after performing the culture in the D-MEM medium containing the 2-mercaptoethanol (142 μM), LIF (wako, used by 1:1000), ACTH (wako, 10 μmol/L), bFGF (wako, 0.34 nmol/L), and AR-A014418 (Merck, 3 μM) were added in this medium and further the cells were cultured for one week. As a result, both of spheroid formation of the cells and the alkaline phosphatase stain were observed.
In the item 1, when (i) only the LIF, (ii) only the ACTH, or (iii) only the LIF and the ACTH were added to the ADSC-4 medium for culture, spheroid formation of the cells and the alkaline phosphatase stain were observed under any conditions.

[2] = tested on: normal human skin fibroblast (adult); assay: Effect by CCL2 added to LIF on reprogramming (cell form)
Method: The CCL2 was added to the LIF and an influence given to reprogramming was verified. In accordance with Working Example 1, while medium exchange was performed on a normal human skin fibroblast (adult) (the Takara Bio) in a D-MEM medium containing 2-mercaptoethanol (142 μM) for three to four days, culture was performed for seven days. Next, culture was performed for additional seven days in a medium in which (i) only LIF, (ii) LIF+CCL2 (10 ng/mL), or (iii) LIF+CCL2 (100 ng/mL) were added to an ADSC-4 medium. Note that the LIF was used by 1:1000.

[3] = tested on: Nanog, Klf4, Oct4, and Sox2; assay: PCR for expression of undifferentiated markers; details: human skin fibroblasts processed with 2-mercaptoethanol and reprogrammed (FIG. 4 lane 3)
Method: Whether gene expression had been generated was examined on Nanog, Klf4, Oct4, and Sox2 as the undifferentiated markers. The RNA was collected from the cells using a RNeasy Mini Kit (QIAGEN). PCR was performed on the above-described various kinds of undifferentiated markers using the method described in Cell. 2007 Nov 30; 131(5): 861-72.

[4] = tested on: Normal human skin fibroblasts (adult); assay: Extinction of cells at high 2-mercaptoethanol concentration; details: D-MEM medium
Method: as §1, §2

[5] = after 2-mercaptoethanol (142 μM) step, only the named factor(s) added to ADSC-4 medium
[6] = culture only in D-MEM containing 2-mercaptoethanol (142 μM), no step (b)

“ACTH: adrenocorticotropic hormone (wako, 10 μmol/L) (SYSMEHFRWGKPVGKKRRPVKVYPNGAEDESAEAFPLEF; Corticotropin; UniProt P01189 138-176, looked up)” was tested, and the “spheroid formation of the cells and alkaline phosphatase stain” value [1, 5] was “observed”.
With “LIF: leukemia inhibiting factor, OCT3/4 transcription stimulating factor (wako, used by 1:1000)” the “alkaline phosphatase stain (strength)” value [1, 5] was “especially observed strongly”, the “spheroid formation of the cells and alkaline phosphatase stain” value [1, 5] was “observed” and the “change in form of the cells” value ([2]; (i) only LIF 1:1000 in ADSC-4, seven days, after 2-mercaptoethanol (142 μM) seven days) was “confirmed”.
OCCS [2-mercaptoethanol] was tested, and the “expression of undifferentiated markers Nanog, Klf4, Oct4, and Sox2 (PCR bands around targeted sizes)” value [3] was “bands were able to be confirmed”, the “change in form of the cells” value ([1]; 142 μM in D-MEM (Low Glucose), cultured for one week) was “the change in form of the cells was confirmed” and the “spheroid formation of the cells and alkaline phosphatase stain” value ([1]; 142 μM in D-MEM, then LIF, ACTH, bFGF, AR-A014418 added in this same medium, one further week) was “observed”. For the same compound, the spheroid formation ([1]; 142 μM one week, then one week in ADSC-4 with LIF 1:1000, ACTH 10 μmol/L, bFGF 0.34 nmol/L, AR-A014418 3 μM) was “forming spheroids”, the “alkaline phosphatase stain (AP Live Stain, fluorescence microscope)” value ([1]; 142 μM one week, then one week in ADSC-4 with LIF, ACTH, bFGF, AR-A014418) was “the stain was observed” and the “spheroid formation of the cells and alkaline phosphatase stain” value ([1]; 2-mercaptoethanol at 0.142 μM to 1.42 mM in step (a), then ADSC-4 with LIF, ACTH, bFGF, AR-A014418) was “observed”. The alkaline phosphatase stain ([1]; 2-mercaptoethanol at 14.2 μM to 1.42 mM in step (a), then ADSC-4 with LIF, ACTH, bFGF, AR-A014418) was “especially strongly observed”, the alkaline phosphatase stain [1, 6] was “weak” and the “spheroid formation of the cells” value [1, 6] was “observed”. For the same compound, the “2-mercaptoethanol concentration at which extinction of the cells was observed” value [4] was at least 14.2 mM.
For “CCL2: chemokine (C-C motif) ligand 2, OCT3/4 transcription stimulating factor”, the “cell aggregation on addition of CCL2 to LIF” value ([2]; contours between cells clarified, divergence of cell adhesion recognized (FIG. 13D)) was “remarkable”.
